For data set [1] the following is noted: cited from earlier work.
Data set [2] is described as follows: pH study of dilute solutions of VertecBio solvents with dichlorvos. As to conditions: solvent containing 1% dichlorvos. It counts as physicochemical. On the procedure:
In this example, the pH of a dilute solution of an organophosphate pesticide is tracked over time. The dilution into water is done without any surfactants.
The biosolvents were diluted in water at one, two, and three percent concentrations. The solvents, before being diluted, contained 1% dichlorvos. The VertecBio Citrus™ and Gold™ blends were made of 80% ethyl lactate and 20% d-limonene and methyl soyate respectively.
(§1) The initial pH of the water was approximately 7.80 pH units.

A short description of data set [3]: pH study of dilute solutions of VertecBio solvents with neem oil containing azadirachtin. It counts as physicochemical. As to conditions: solvent mixed with 3% (w/w) neem oil. On the procedure:
The biosolvents were mixed with 3% (w/w) neem oil containing the natural pesticide azadirachtin. These were diluted in water at one, two, and three percent concentrations. The Citrus™ and Gold™ blends were made of 80% ethyl lactate and 20% d-limonene and methyl soyate, respectively, as described above. […] The initial pH of the water was 7.80 pH units.

Data set [4] in a line: pH study of dilute solutions of VertecBio solvents in water. It counts as physicochemical. The method, then: The Citrus and Gold blends were made of 80% Ethyl lactate and 20% d-limonene and methyl soyate respectively. The pH was measured at various intervals and was recorded.
as §1

With `CCCCNC(=O)n1c(NC(=O)OC)nc2ccccc21` [Benlate, benomyl], in data set [1], the “½ Life at pH 5.0” value is listed as 30 hr and the “½ Life at pH 7.0” value is given as 1 hr.
Consider `O=C1C2CC=CCC2C(=O)N1SC(Cl)(Cl)Cl` (stereo not drawn) [Captan, captan], for which, in data set [1], the “½ Life at pH 5.0” value is listed as 10 hr, the “½ Life at pH 7.0” value is 3 hr, the “½ Life at pH 8.0” value is 10 min and the “½ Life at pH 9.0” value is 2 min.
As for `CNC(=O)CSP(=S)(OC)OC` [Cygon, dimethoate], in data set [1], the “½ Life at pH 6.0” value is on record as 12 hr and the “½ Life at pH 9.0” value was 48 min.
Turning to `CCOP(=S)(OCC)Oc1nc(Cl)c(Cl)cc1Cl` [Dursban, chlorpyrofos], in data set [1], the “½ Life at pH 5.0” value is listed as 63 days, the “½ Life at pH 7.0” value is given as 35 days and the “½ Life at pH 8.0” value is reported as 1.5 days.
For `CCOC(=O)C(C)O` (stereo not drawn) [Ethyl Lactate, ethyl lactate], the “pH of dilute solution” value in data set [2] (1% in water, 4 hours) amounted to 7.3; in data set [2] (1% in water, 24 hours) it was 7.15; in data set [2] (1% in water, 48 hours), 7.08; in data set [2] (1% in water, 72 hours), 6.89; in data set [2] (1% in water, Initial), 7.72; in data set [2] (2% in water, 24 hours) it was 6.92. For the same compound, the “pH of dilute solution” value in data set [2] (2% in water, 48 hours) came out at 6.55; in data set [2] (2% in water, 72 hours), 6.04; in data set [2] (2% in water, Initial), 7.5; in data set [2] (3% in water, 4 hours) it was 6.97; in data set [2] (3% in water, 24 hours) it was 6.6; in data set [2] (3% in water, 48 hours) it was 6.28. Also, the “pH of dilute solution” value in data set [2] (3% in water, 72 hours) came out at 5.45; in data set [2] (3% in water, Initial), 7.51; in data set [3] (1% in water, 4 hours) it was 7.43; in data set [3] (1% in water, 24 hours) it was 6.77; in data set [3] (1% in water, 48 hours), 6.94; in data set [3] (1% in water, 72 hours), 6.39. Also, the “pH of dilute solution” value is on record as 7.59 in data set [3] (1% in water, Initial); 6.74 in data set [3] (2% in water, 48 hours); 6.02 in data set [3] (2% in water, 72 hours); 7.41 in data set [3] (2% in water, Initial); 6.68 in data set [3] (3% in water, 24 hours); 6.61 in data set [3] (3% in water, 48 hours). Also, the “pH of dilute solution” value is 5.78 in data set [3] (3% in water, 72 hours); 7.31 in data set [3] (3% in water, Initial); 7.25 in data set [4] (1% in water, 2 hours); 7.10 in data set [4] (1% in water, 4 hours); 6.95 in data set [4] (1% in water, 6 hours); 7.11 in data set [4] (1% in water, 8 hours). Besides, the “pH of dilute solution” value in data set [4] (1% in water, 24 hours) was 6.78; in data set [4] (1% in water, 48 hours), 6.75; in data set [4] (1% in water, 72 hours), 6.56; in data set [4] (1% in water, Initial), 7.75; in data set [4] (2% in water, 2 hours) it was 7.14; in data set [4] (2% in water, 4 hours) it was 7.00. The “pH of dilute solution” value in data set [4] (2% in water, 6 hours) was determined as 6.90; in data set [4] (2% in water, 8 hours) it was 6.90; in data set [4] (2% in water, 24 hours) it was 6.56; in data set [4] (2% in water, 48 hours) it was 6.43; in data set [4] (2% in water, 72 hours) it was 5.88; in data set [4] (2% in water, Initial), 7.65. The “pH of dilute solution” value is 7.01 in data set [4] (3% in water, 2 hours); 6.90 in data set [4] (3% in water, 4 hours); 6.78 in data set [4] (3% in water, 6 hours); 6.79 in data set [4] (3% in water, 8 hours); 6.47 in data set [4] (3% in water, 24 hours); 5.93 in data set [4] (3% in water, 48 hours). Besides, the “pH of dilute solution” value in data set [4] (3% in water, 72 hours) is recorded as 5.47; in data set [4] (3% in water, Initial) it was 7.54.
Take `COP(=S)(OC)SCn1nnc2ccccc2c1=O` [Guthion, azin-phos methyl]: in data set [1], the “½ Life at pH 5.0” value is 60 hr and the “½ Life at pH 9.0” value is 12 hr.
`COP(=S)(OC)SCN1C(=O)c2ccccc2C1=O` [Imidan, phosmet]: in data set [1], the “½ Life at pH 5.0” value is recorded as 7 days, the “½ Life at pH 7.0” value is reported as 12 hr and the “½ Life at pH 8.0” value is 4 hr.
For `CCOC(=O)CC(SP(=S)(OC)OC)C(=O)OCC` (stereo not drawn) [Malathion, malathion], in data set [1], the “½ Life at pH 6.0” value is recorded as 8 days, the “½ Life at pH 7.0” value is listed as 3 days, the “½ Life at pH 8.0” value is given as 19 hr and the “½ Life at pH 9.0” value is recorded as 5 hr.
With `CNC(=O)Oc1cccc2ccccc12` [Sevin, carbaryl], in data set [1], the “½ Life at pH 7.0” value is recorded as 10 days and the “½ Life at pH 9.0” value was 24 hr.

The values above are taken from patent publication US20060199736A1, “Environmentally benign bioactive formulation” (priority 2002, published 2006).
